Several values for one entry are separate records, joined by “and”; a condition that tells them apart may be missing. Equal values may be shown once.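 Five concentrations, 48 hours, 96-well plates. The concentration for 50% growth inhibition is given as GI50. At the TGI there is no net growth.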

Test systems include 786-0 renal; HOP-62 NSCLC; KM12 colon; OVCAR-3 ovarian; SF-268 CNS; SK-MEL-28 melanoma; SK-MEL-5 melanoma; SNB-75 CNS; SW-620 colon; T-47D breast.
Test in all cases: inhibition of tumour cell growth, NCI panel, 48 h

On to `NC(=O)CNC(=O)[C@@H]1CC(OCCC(=O)O)CN1C(=O)C1CCCN1C(=O)OCc1ccccc1` (stereo partly specified), for which the TGI with 786-0 renal, with HOP-62 NSCLC, in the experiment on KM12 colon, in the experiment with OVCAR-3 ovarian, with SF-268 CNS and with SK-MEL-28 melanoma was > 100 µM each time. Further, the TGI in the experiment on SK-MEL-5 melanoma, with SNB-75 CNS, with SW-620 colon and in the experiment on T-47D breast was > 100 µM each time.
On to `N#CN1C2CCC1CC(=O)C2`, for which the TGI in the experiment with 786-0 renal, in the experiment on HOP-62 NSCLC, with KM12 colon, in the experiment with OVCAR-3 ovarian, in the experiment with SF-268 CNS and with SK-MEL-28 melanoma was > 100 µM each time. Besides, the TGI in the experiment on SK-MEL-5 melanoma, in the experiment on SNB-75 CNS, with SW-620 colon and in the experiment with T-47D breast was > 100 µM each time.
For the compound `N#CCCN(CCC#N)c1ccc(/C=C2\N=C(c3ccccc3)N(c3ccc(F)cc3)C2=O)cc1`, the TGI in the experiment on 786-0 renal, in the experiment on HOP-62 NSCLC, with KM12 colon, with OVCAR-3 ovarian, with SF-268 CNS and in the experiment on SK-MEL-28 melanoma was > 100 µM throughout. Also, the TGI in the experiment with SK-MEL-5 melanoma, with SNB-75 CNS, in the experiment with SW-620 colon and in the experiment with T-47D breast was > 100 µM each time.
With `C[C@@H]1OC(=O)C[C@H]2CC(=O)N(CCC3CN(C(=O)OCc4ccccc4)c4ccccc43)C[C@@H]21` (stereo partly specified), the TGI in the experiment on 786-0 renal, with HOP-62 NSCLC, in the experiment with KM12 colon, with OVCAR-3 ovarian, with SF-268 CNS and in the experiment on SK-MEL-28 melanoma was > 100 µM throughout. Also, the TGI with SK-MEL-5 melanoma, with SNB-75 CNS, with SW-620 colon and in the experiment on T-47D breast was > 100 µM in each case.
As to `COc1ccc2c(c1)C(=O)CC1c3cnccc3C(=O)N21` (stereo unspecified), the TGI with 786-0 renal, in the experiment on HOP-62 NSCLC, in the experiment on KM12 colon, in the experiment with OVCAR-3 ovarian, in the experiment with SF-268 CNS and with SK-MEL-28 melanoma was > 100 µM in each case. For the same compound, the TGI in the experiment with SK-MEL-5 melanoma, in the experiment on SNB-75 CNS, in the experiment on SW-620 colon and in the experiment on T-47D breast was > 100 µM each time.
In the case of `CC1=NNC(=O)C1C1C(=O)NN=C(c2c[nH]c3ccccc23)C1Br` (stereo unspecified), the TGI was > 100 µM in the experiment with 786-0 renal; > 100 µM in the experiment on HOP-62 NSCLC; 34.4 µM with KM12 colon; > 100 µM in the experiment with OVCAR-3 ovarian; > 100 µM in the experiment on SF-268 CNS; > 100 µM in the experiment with SK-MEL-28 melanoma. The TGI is > 100 µM with SK-MEL-5 melanoma, 58.9 µM in the experiment on SNB-75 CNS, > 100 µM with SW-620 colon and > 100 µM in the experiment on T-47D breast.
Regarding `CC(C)(C)c1ccc(OCCOc2ccc(C(C)(C)C)cc2N)c(N)c1`, the TGI with 786-0 renal, in the experiment with HOP-62 NSCLC, with KM12 colon, with OVCAR-3 ovarian, in the experiment on SF-268 CNS and with SK-MEL-28 melanoma was > 100 µM throughout. In addition, the TGI in the experiment on SK-MEL-5 melanoma, in the experiment on SNB-75 CNS, with SW-620 colon and with T-47D breast was > 100 µM in each case.
As to `CC(=O)c1c(-c2cccc3ccccc23)c(C#N)c(=S)n(C2OC(CO)C(O)C(O)C2O)c1C` (stereo unspecified), the TGI in the experiment with 786-0 renal, in the experiment with HOP-62 NSCLC, in the experiment with KM12 colon, in the experiment with OVCAR-3 ovarian, in the experiment with SF-268 CNS and in the experiment on SK-MEL-28 melanoma was > 100 µM in each case. The TGI in the experiment with SK-MEL-5 melanoma, in the experiment on SNB-75 CNS, in the experiment on SW-620 colon and in the experiment on T-47D breast was > 100 µM in each case. The GI50 in the experiment with T-47D breast was > 100 µM and 27.3 µM.
On to `CC(C)/C(Cl)=N/OC(=O)Nc1ccc(Br)cc1`, for which the TGI in the experiment with 786-0 renal worked out at 3.63 µM; in the experiment with HOP-62 NSCLC it was 31.7 µM; with KM12 colon, 26.6 µM; in the experiment on OVCAR-3 ovarian, 9.5 µM; with SF-268 CNS it was 34 µM; in the experiment with SK-MEL-28 melanoma, 14.1 µM. For the same compound, the TGI was 26.3 µM in the experiment on SK-MEL-5 melanoma, 34.3 µM with SNB-75 CNS, 4.6 µM with SW-620 colon and 9.95 µM in the experiment on T-47D breast.
For `C=CCOC(=O)N1c2ccc(O[Si](C)(C)C(C)(C)C)cc2[C@@]23O[C@@]24[C@@H]1C#C/C=C\C#C[C@]3(O)C(OC)(OC)C[C@@H]4C`, the TGI in the experiment with 786-0 renal, in the experiment with HOP-62 NSCLC, in the experiment on KM12 colon, in the experiment on OVCAR-3 ovarian, in the experiment on SF-268 CNS and with SK-MEL-28 melanoma was > 100 µM each time. Also, the TGI in the experiment with SK-MEL-5 melanoma was > 100 µM; in the experiment with SNB-75 CNS, > 75.9 µM; with SW-620 colon, > 100 µM; in the experiment with T-47D breast, > 100 µM.
In the case of `CC(=O)O[C@H]1CC(C)(C)C(=C=C/C(C)=C/C=C/C=C/C=C(C)/C=C2C=C(/C=C/[C@@]34O[C@]3(C)C[C@@H](O)CC4(C)C)C(=O)O/2)[C@](C)(O)C1`, the TGI in the experiment on 786-0 renal is 85.9 µM; in the experiment with HOP-62 NSCLC it was 32 µM; in the experiment with KM12 colon it was 46.5 µM; with OVCAR-3 ovarian, 23.2 µM; in the experiment with SF-268 CNS, 43.6 µM; with SK-MEL-28 melanoma it was > 100 µM. Besides, the TGI is 28.9 µM in the experiment on SK-MEL-5 melanoma, 28 µM in the experiment with SNB-75 CNS, > 100 µM with SW-620 colon and > 100 µM in the experiment with T-47D breast.
In the case of `CCOC(=O)c1ccc(-n2[nH]nc(C(N)=O)c2=O)cc1`, the TGI in the experiment on 786-0 renal, in the experiment on HOP-62 NSCLC, in the experiment with KM12 colon, with OVCAR-3 ovarian, in the experiment with SF-268 CNS and in the experiment on SK-MEL-28 melanoma was > 100 µM in each case. In addition, the TGI in the experiment with SK-MEL-5 melanoma, in the experiment with SNB-75 CNS, in the experiment on SW-620 colon and in the experiment with T-47D breast was > 100 µM in each case.
